Source: the supplement of paper PMC10290057

Key:
HCT116 [1] = assay: efficacy (fitted maximal change in viability relative to DMSO control); higher = less cytotoxic (negative = loss of viability); conditions: 48 h
HCT116 [2] = assay: AC50 cell viability (CellTiter-Glo); higher = less potent; conditions: 48 h
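Throughout, for AC50 cell viability (CellTiter-Glo): HCT116 colorectal carcinoma cells screened at five concentrations per compound, luminescent viability scaled between DMSO wells and empty wells on each plate, curves fitted per compound.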
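Throughout, for efficacy (fitted maximal change in viability relative to DMSO control): Luminescence-based viability readout, five doses per compound, normalized against on-plate DMSO and empty-well controls, followed by dose-response curve fitting for every drug.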

c1cc(N[C@@H]2CCNC2)nc(-c2cnc3ccc(-c4cn[nH]c4)cn23)c1
efficacy (HCT116 [1]): -59.7%
AC50 cell viability (HCT116 [2]): 7.42 µM

CC(=O)NCC(=O)N1[C@@H]2CC[C@H]1c1ccc(Nc3ncc(C(F)(F)F)c(NC4CCC4)n3)cc12
efficacy (HCT116 [1]): -73.5%
AC50 cell viability (HCT116 [2]): 1.48 µM

CC(C)(C)C[C@H]1N[C@@H](C(=O)N[C@H]2CC[C@H](O)CC2)[C@H](c2cccc(Cl)c2F)[C@@]12C(=O)Nc1cc(Cl)ccc12
efficacy (HCT116 [1]): -91.1%
AC50 cell viability (HCT116 [2]): 4.17 µM

CC(C)CC(=O)Nc1n[nH]c2c1CN(C(=O)C1CCN(C)CC1)C2(C)C
efficacy (HCT116 [1]): -68.7%
AC50 cell viability (HCT116 [2]): 0.186 µM

CC(C)Oc1ccc(C(=O)N[C@H](CNC(=O)CN(C)C)Cc2ccc(-c3cn4cccc([C@H](C)O)c4n3)cc2)cc1Cl
efficacy (HCT116 [1]): -127%
AC50 cell viability (HCT116 [2]): 4.17 µM

Cc1ccc(C(N)=O)cc1Nc1nccc(-c2cn(C(C)C)c3cnccc23)n1
efficacy (HCT116 [1]): -69.4%
AC50 cell viability (HCT116 [2]): 2.09 µM

Cc1cc(I)ccc1Nc1c(C(=O)NOCC2CC2)cc(F)c(F)c1F
efficacy (HCT116 [1]): -95.1%
AC50 cell viability (HCT116 [2]): 4.68 µM

CC1=C2N=C([NH]C2=CC(=C1)N3CCOCC3)\C4=C(NC[C@@H](O)C5=CC=CC(=C5)Cl)\C=C/NC4=O
efficacy (HCT116 [1]): -93.9%
AC50 cell viability (HCT116 [2]): 6.61 µM

Cc1ccc([S+](=O)([O-])Nc2cc(Cl)ccc2C(=O)Nc2nc(-c3ccccc3)cs2)cc1
efficacy (HCT116 [1]): -82.5%
AC50 cell viability (HCT116 [2]): 2.63 µM

Cc1ccc(NC(=O)c2ccc3c(c2)OCCO3)cc1NC(=O)c1ccc2nc(OCCN3CCCC3)ccc2c1
efficacy (HCT116 [1]): -69.9%
AC50 cell viability (HCT116 [2]): 0.0407 µM

CCc1ccc2nc(Nc3cc(Cc4ccccc4)nc(N[C@H]4CC[C@H](O)CC4)n3)sc2c1
efficacy (HCT116 [1]): -65.1%
AC50 cell viability (HCT116 [2]): 18.6 µM

CCc1cccc(CC)c1NC(=O)N1Cc2[nH]nc(NC(=O)c3ccc(N4CCN(C)CC4)cc3)c2C1
efficacy (HCT116 [1]): -88.9%
AC50 cell viability (HCT116 [2]): 11.8 µM

CCCC(CCC)C(=O)NC/1=N/C(=O)N(/C=C1)[C@@H]2O[C@H](CO)[C@@H](O)C2(F)F
efficacy (HCT116 [1]): -48.1%
AC50 cell viability (HCT116 [2]): 2.63 µM

CCCCOc1c(C(=O)c2c(F)cc(C)cc2F)cnc2[nH]ncc12
efficacy (HCT116 [1]): -75.8%
AC50 cell viability (HCT116 [2]): 1.32 µM

CCN(CC)CCCCNc1nc2cc(Cl)c(Cl)cc2nc1-c1ccc(-c2cccs2)s1
efficacy (HCT116 [1]): -97.7%
AC50 cell viability (HCT116 [2]): 23.5 µM

CCN(CC)CCCCNc1ncc2c(n1)N(C)C(=O)N(c1c(Cl)c(OC)cc(OC)c1Cl)C2
efficacy (HCT116 [1]): -80.5%
AC50 cell viability (HCT116 [2]): 11.8 µM

CCNC(=O)c1cc2c(-c3cc(OCCN4CCCC4)c(Cl)cc3Cl)nc(N)nc2s1
efficacy (HCT116 [1]): -57.9%
AC50 cell viability (HCT116 [2]): 0.456 µM

CCNC(=O)C[C@H]1/N=C(/C2=CC=C(Cl)C=C2)C3=CC(=CC=C3[N]4C(=NN=C14)C)OC
efficacy (HCT116 [1]): -37.7%
AC50 cell viability (HCT116 [2]): 14.8 µM

CCOC1=CC(=CC=C1C/2=N/[C@@](C)(C3=CC=C(Cl)C=C3)[C@](C)(N2C(=O)N4CCN(CC4)CC(=O)N5CCOCC5)C6=CC=C(Cl)C=C6)C(C)(C)C
efficacy (HCT116 [1]): -114%
AC50 cell viability (HCT116 [2]): 9.17 µM

CN(C)c1ccc(-c2nc3c(N4CCN(CC(=O)Nc5nccs5)CC4)c(Cl)cnc3[nH]2)cc1
efficacy (HCT116 [1]): -34.1%
AC50 cell viability (HCT116 [2]): 0.723 µM

CN(C)CC(=O)N1CCC(CC1)C2=CC=C(NC(=O)C3=NC(=C[NH]3)C#N)C(=C2)\C4=C\CCCC4
efficacy (HCT116 [1]): -80.1%
AC50 cell viability (HCT116 [2]): 16.6 µM

CN(C)Cc1cccc(N/C(=C2\C(=O)Nc3cc(C(=O)N(C)C)ccc32)c2ccccc2)c1
efficacy (HCT116 [1]): -69.8%
AC50 cell viability (HCT116 [2]): 13.2 µM

Cc1nn(Cc2ccccc2Cl)c(C)c1CN(C)CC(O)COc1ccc(Cl)cc1 (stereo not drawn)
efficacy (HCT116 [1]): -92.3%
AC50 cell viability (HCT116 [2]): 18.6 µM

CN1CCN(CC1)C2=CC=C(NC3=NC=C4\C=C(\C#N)C(=O)N(C5CCCC5)C4=N3)C=C2
efficacy (HCT116 [1]): -77.1%
AC50 cell viability (HCT116 [2]): 1.32 µM

CN1CCN(c2cccc(Nc3nc4c(-c5ccc([S+](C)(=O)[O-])cc5)cccn4n3)c2)CC1
efficacy (HCT116 [1]): -121%
AC50 cell viability (HCT116 [2]): 16.6 µM

Cc1cc(Nc2cc(N3CCN(C)CC3)nc(/C=C/c3ccccc3)n2)n[nH]1
efficacy (HCT116 [1]): -99.9%
AC50 cell viability (HCT116 [2]): 5.9 µM

CNC(=O)C1=CC=C(C)C(=C1)N2C(=C/C(=C(/Br)C2=O)OCC3=C(F)C=C(F)C=C3)\C
efficacy (HCT116 [1]): -41.4%
AC50 cell viability (HCT116 [2]): 16.6 µM

CNC(=O)c1ccccc1Nc1nc(Nc2ccc3c(c2OC)CCC[C@@H](N2CCN(CCO)CC2)C3)ncc1Cl
efficacy (HCT116 [1]): -110%
AC50 cell viability (HCT116 [2]): 4.17 µM

CNC(=O)Cn1cc(-c2ccc3c(c2)C(F)CC32NC(=O)N(CC(=O)N(Cc3ccc(F)cc3)C(C)C(F)(F)F)C2=O)cn1 (stereo not drawn)
efficacy (HCT116 [1]): -51.2%
AC50 cell viability (HCT116 [2]): 0.934 µM

CNC(=O)Nc1ccc(-c2nc(N3CC4CCC(C3)O4)c3cnn(C4CCC5(CC4)OCCO5)c3n2)cc1
efficacy (HCT116 [1]): -96.3%
AC50 cell viability (HCT116 [2]): 1.18 µM

CNc1nc(-c2ccc3c(N)n[nH]c3c2)cc(N2C[C@@H](C(=O)NC3CCCCC3)CC[C@H]2C)n1
efficacy (HCT116 [1]): -110%
AC50 cell viability (HCT116 [2]): 18.6 µM

CNCc1ccc(C)c(NC(=O)c2ccc(Nc3nc(-c4ccccc4)c4ccccc4n3)cc2)c1
efficacy (HCT116 [1]): -94.8%
AC50 cell viability (HCT116 [2]): 18.6 µM

CNCCn1c(=O)c2cc(OC)c(OC)cc2c2cnc3cc4c(cc3c21)OCO4
efficacy (HCT116 [1]): -80.9%
AC50 cell viability (HCT116 [2]): 0.0303 µM

COc1cc(-c2cc(-c3ccc(N4CCNCC4)cc3)cnc2C)cc(OC)c1OC
efficacy (HCT116 [1]): -57.2%
AC50 cell viability (HCT116 [2]): 9.34 µM

COc1cc2ncnc(-n3nc(-c4ccccn4)nc3N)c2cc1OC
efficacy (HCT116 [1]): -47.9%
AC50 cell viability (HCT116 [2]): 4.68 µM

COc1cc2nc(-c3ccc(N4CCN(C)CC4)cc3)nc(NCCN3CCOCC3)c2cc1OC
efficacy (HCT116 [1]): -87.2%
AC50 cell viability (HCT116 [2]): 2.95 µM

COc1cc(N2CCC(N(C)C)CC2)ccc1Nc1ncc(Cl)c(Nc2ccccc2P(C)(C)=O)n1
efficacy (HCT116 [1]): -87.7%
AC50 cell viability (HCT116 [2]): 0.742 µM

COc1cc2ncnc(Oc3cccc(NC(=O)Nc4cc(C(C)(C)C(F)(F)F)on4)c3)c2cc1OC
efficacy (HCT116 [1]): -66.5%
AC50 cell viability (HCT116 [2]): 3.72 µM

COc1ccc(-c2cc(C(O)C3CCCCN3)c3ccccc3n2)cc1 (stereo not drawn)
efficacy (HCT116 [1]): -90.9%
AC50 cell viability (HCT116 [2]): 4.68 µM

COc1ccc(-c2cc3c(C)nc(N)nc3n([C@H]3CC[C@H](OCCO)CC3)c2=O)cn1
efficacy (HCT116 [1]): -71.8%
AC50 cell viability (HCT116 [2]): 0.332 µM

COc1ccc(CCN(C)CCCOc2ccc([S+](=O)([O-])c3c(C(C)C)c4ccccc4n3C)cc2)cc1OC
efficacy (HCT116 [1]): -91.8%
AC50 cell viability (HCT116 [2]): 8.33 µM

COc1ccc(Cl)c(Nc2ncnc3cc(OCC4CCN(C)CC4)c(OC)cc23)c1
efficacy (HCT116 [1]): -93.6%
AC50 cell viability (HCT116 [2]): 23.5 µM

Cc1cc(OCCCc2c3n(c4c(-c5c(C)nn(C)c5C)c(Cl)ccc24)[C@H](C)CN(c2cn(C)c4ccc(C(=O)O)cc24)C3=O)cc(C)c1Cl
efficacy (HCT116 [1]): -93.6%
AC50 cell viability (HCT116 [2]): 16.6 µM

Cc1ccc(-c2ccc3c(ccc4sc5c(c43)NC[C@@H](C)NC5=O)n2)cn1
efficacy (HCT116 [1]): -96.2%
AC50 cell viability (HCT116 [2]): 20.9 µM

Cn1ncc(Cl)c1-c1cc(C(=O)NC(CN)Cc2ccc(F)c(F)c2)oc1Cl (stereo not drawn)
efficacy (HCT116 [1]): -117%
AC50 cell viability (HCT116 [2]): 13.2 µM

C[S+](=O)([O-])N1CCc2c(-c3cnc(N)nc3)nc(N3CCOCC3)nc21
efficacy (HCT116 [1]): -56.8%
AC50 cell viability (HCT116 [2]): 0.661 µM

C[S+]([O-])c1ccc(-c2nc(-c3ccc(F)cc3)c(-c3ccncc3)[nH]2)cc1 (stereo not drawn)
efficacy (HCT116 [1]): -83.2%
AC50 cell viability (HCT116 [2]): 18.6 µM

O=C(/C=C/c1ccc(Cl)cc1)N1CCC2(CC1)CN(Cc1ccc(Cl)c(Cl)c1)C(=O)O2
efficacy (HCT116 [1]): -85.1%
AC50 cell viability (HCT116 [2]): 23.5 µM

ClC1=C[NH]N=C1C\2NC(=N\C3=C2C(=O)CCC3)/NC4=NC5=CC=CC=C5O4 (stereo not drawn)
efficacy (HCT116 [1]): -63.3%
AC50 cell viability (HCT116 [2]): 18.6 µM

O=C(N[C@@H](c1ccccc1)[C@@H]1CCCCN1)c1cccc(C(F)(F)F)c1Cl
efficacy (HCT116 [1]): -108%
AC50 cell viability (HCT116 [2]): 20.9 µM

O=C(Nc1ccccc1Br)N[C@@H]1CCN(c2ccc(C(F)(F)F)cn2)C1
efficacy (HCT116 [1]): -39.8%
AC50 cell viability (HCT116 [2]): 16.6 µM

O=C(NOCC1CC1)c1ccc(F)c(F)c1Nc1ccc(I)cc1Cl
efficacy (HCT116 [1]): -126%
AC50 cell viability (HCT116 [2]): 4.68 µM

Fc1ccc(-c2csc3ncnc(NCc4ccc5c(c4)OCO5)c23)cc1
efficacy (HCT116 [1]): -57.3%
AC50 cell viability (HCT116 [2]): 8.33 µM

N#Cc1cccc(-c2c[nH]c3ncnc(N4CCOCC4)c23)c1
efficacy (HCT116 [1]): -40.9%
AC50 cell viability (HCT116 [2]): 16.6 µM

NC1(Cc2ccc(Cl)cc2)CCN(c2ncnc3[nH]ccc23)CC1
efficacy (HCT116 [1]): -95.2%
AC50 cell viability (HCT116 [2]): 13.2 µM

Nc1nc(Nc2ccc([S+](N)(=O)[O-])cc2)nn1C(=O)c1c(F)cccc1F
efficacy (HCT116 [1]): -65.7%
AC50 cell viability (HCT116 [2]): 1.66 µM

Nc1n[nH]c2nnc(-c3c(-c4ccccc4)nn4ccccc34)cc12
efficacy (HCT116 [1]): -41.3%
AC50 cell viability (HCT116 [2]): 18.6 µM

NC\1=N\C(=O)N(\C=C1F)[C@H]2C[C@H](O)[C@@H](CO)O2
efficacy (HCT116 [1]): -64%
AC50 cell viability (HCT116 [2]): 0.105 µM

N[S+](=O)([O-])c1ccc(Cc2c(-c3cccc(-c4ccccc4)c3)nn(-c3nc(C(=O)O)cs3)c2CC2CC2)cc1
efficacy (HCT116 [1]): -43.2%
AC50 cell viability (HCT116 [2]): 14.8 µM

O=C(C1CC1)N1CC[C@@H](Cn2c(-c3ccc(-c4ccc5occc5c4)cc3)nc3cnccc32)C1
efficacy (HCT116 [1]): -66.1%
AC50 cell viability (HCT116 [2]): 23.5 µM

O=C(NCCCNc1nc(Nc2cccc(CN3CCOCC3)c2)ncc1C1CC1)C1CCC1
efficacy (HCT116 [1]): -96.5%
AC50 cell viability (HCT116 [2]): 16.6 µM

O=C(NCC(=O)N1CC[C@H](NC2CCC(O)(c3ccc(-c4ncccn4)cn3)CC2)C1)c1cccc(C(F)(F)F)c1 (stereo partly drawn)
efficacy (HCT116 [1]): -47%
AC50 cell viability (HCT116 [2]): 5.9 µM

O=C1CSC(=O)N1C(CCc1ccncc1)COc1ccc(-c2cccc([N+](=O)[O-])c2)cc1 (stereo not drawn)
efficacy (HCT116 [1]): -32.9%
AC50 cell viability (HCT116 [2]): 2.63 µM

N#Cc1ccc2c(c1)CN([S+](=O)([O-])c1cccs1)[C@H](Cc1ccccc1)CN2Cc1cnc[nH]1
efficacy (HCT116 [1]): -73.3%
AC50 cell viability (HCT116 [2]): 0.417 µM
